Experimental data reported in patent US8519096B2, “Citrullinated peptides for diagnosing and prognosing rheumatoid arthritis” (Nestec S.A., priority 2009, dated 2013).
Non-standard residues stand in square brackets, D forms with d. *: point of attachment. Biotin = O=C1N[C@H]2[C@H](CS[C@H]2CCCCC(=O)*)N1; Cit = NC(=O)NCCC[C@H](N)C(=O)O

Test system: IgG ACPAs
Assay: ACPA ELISA with anti-human IgG secondary antibody
Format: binding
Conditions: Example 7, FIGS. 20-27
Description: The synthetic citrullnated peptides set forth in Example 6, which were designed from synovial proteins, were synthesized and evaluated for their ability to diagnose and/or prognose RA. […] The peptides were then tested for IgG ACPA dose-response in samples of synovial fluid taken from both healthy patients and patients with RA.

Substance	IgG ACPA positive response (strong/moderate)
T2α1-3: synthetic citrullinated peptide derived from collagen (Coll.T2α1), Table 8 (Biotin-KWGKTVIEY[Cit]SQKTSRLYRSQKTS[Cit]LG-NH2; SMILES CC[C@H](C)[C@H](NC(=O)[C@@H](NC(=O)[C@@H](NC(=O)[C@H](CCCCN)NC(=O)CNC(=O)[C@H](Cc1c[nH]c2ccccc12)NC(=O)[C@H](CCCCN)NC(=O)CCCC[C@@H]1SC[C@@H]2NC(=O)N[C@@H]21)[C@@H](C)O)C(C)C)C(=O)N[C@@H](CCC(=O)O)C(=O)N[C@@H](Cc1ccc(O)cc1)C(=O)N[C@@H](CCCNC(N)=O)C(=O)N[C@@H](CO)C(=O)N[C@@H](CCC(N)=O)C(=O)N[C@@H](CCCCN)C(=O)N[C@H](C(=O)N[C@@H](CO)C(=O)N[C@@H](CCCNC(=N)N)C(=O)N[C@@H](CC(C)C)C(=O)N[C@@H](Cc1ccc(O)cc1)C(=O)N[C@@H](CCCNC(=N)N)C(=O)N[C@@H](CO)C(=O)N[C@@H](CCC(N)=O)C(=O)N[C@@H](CCCCN)C(=O)N[C@H](C(=O)N[C@@H](CO)C(=O)N[C@@H](CCCNC(N)=O)C(=O)N[C@@H](CC(C)C)C(=O)NCC(N)=O)[C@@H](C)O)[C@@H](C)O)	moderate
T9α1-1: synthetic citrullinated peptide derived from collagen (Coll.T9α1), Table 8 (Biotin-KRRP[Cit]FPVNSFQVDKAAS[Cit]AIQRVVGSRAIQ[Cit]VVGSA-NH2; SMILES CC[C@H](C)[C@H](NC(=O)[C@H](C)NC(=O)[C@H](CCCNC(=N)N)NC(=O)[C@H](CO)NC(=O)CNC(=O)[C@@H](NC(=O)[C@@H](NC(=O)[C@H](CCCNC(=N)N)NC(=O)[C@H](CCC(N)=O)NC(=O)[C@@H](NC(=O)[C@H](C)NC(=O)[C@H](CCCNC(N)=O)NC(=O)[C@H](CO)NC(=O)[C@H](C)NC(=O)[C@H](C)NC(=O)[C@H](CCCCN)NC(=O)[C@H](CC(=O)O)NC(=O)[C@@H](NC(=O)[C@H](CCC(N)=O)NC(=O)[C@H](Cc1ccccc1)NC(=O)[C@H](CO)NC(=O)[C@H](CC(N)=O)NC(=O)[C@@H](NC(=O)[C@@H]1CCCN1C(=O)[C@H](Cc1ccccc1)NC(=O)[C@H](CCCNC(N)=O)NC(=O)[C@@H]1CCCN1C(=O)[C@H](CCCNC(=N)N)NC(=O)[C@H](CCCNC(=N)N)NC(=O)[C@H](CCCCN)NC(=O)CCCC[C@@H]1SC[C@@H]2NC(=O)N[C@@H]21)C(C)C)C(C)C)[C@@H](C)CC)C(C)C)C(C)C)C(=O)N[C@@H](CCC(N)=O)C(=O)N[C@@H](CCCNC(N)=O)C(=O)N[C@H](C(=O)N[C@H](C(=O)NCC(=O)N[C@@H](CO)C(=O)N[C@@H](C)C(N)=O)C(C)C)C(C)C)	moderate
T9α1-4: synthetic citrullinated peptide derived from collagen (Coll.T9α1), Table 8 (Biotin-QHIKQVSM[Cit]VIQEHFAEMAASLK[Cit]G-NH2; SMILES CC[C@H](C)[C@H](NC(=O)[C@H](Cc1c[nH]cn1)NC(=O)[C@H](CCC(N)=O)NC(=O)CCCC[C@@H]1SC[C@@H]2NC(=O)N[C@@H]21)C(=O)N[C@@H](CCCCN)C(=O)N[C@@H](CCC(N)=O)C(=O)N[C@H](C(=O)N[C@@H](CO)C(=O)N[C@@H](CCSC)C(=O)N[C@@H](CCCNC(N)=O)C(=O)N[C@H](C(=O)N[C@H](C(=O)N[C@@H](CCC(N)=O)C(=O)N[C@@H](CCC(=O)O)C(=O)N[C@@H](Cc1c[nH]cn1)C(=O)N[C@@H](Cc1ccccc1)C(=O)N[C@@H](C)C(=O)N[C@@H](CCC(=O)O)C(=O)N[C@@H](CCSC)C(=O)N[C@@H](C)C(=O)N[C@@H](C)C(=O)N[C@@H](CO)C(=O)N[C@@H](CC(C)C)C(=O)N[C@@H](CCCCN)C(=O)N[C@@H](CCCNC(N)=O)C(=O)NCC(N)=O)[C@@H](C)CC)C(C)C)C(C)C)	strong
T10α1-1: synthetic citrullinated peptide derived from collagen (Coll.T10α1), Table 8 (Biotin-KAGQ[Cit]PSLSGDKILYN[Cit]QQ[Cit]TGIFTSQIR-NH2; SMILES CC[C@H](C)[C@H](NC(=O)CNC(=O)[C@@H](NC(=O)[C@H](CCCNC(N)=O)NC(=O)[C@H](CCC(N)=O)NC(=O)[C@H](CCC(N)=O)NC(=O)[C@H](CCCNC(N)=O)NC(=O)[C@H](CC(N)=O)NC(=O)[C@H](Cc1ccc(O)cc1)NC(=O)[C@H](CC(C)C)NC(=O)[C@@H](NC(=O)[C@H](CCCCN)NC(=O)[C@H](CC(=O)O)NC(=O)CNC(=O)[C@H](CO)NC(=O)[C@H](CC(C)C)NC(=O)[C@H](CO)NC(=O)[C@@H]1CCCN1C(=O)[C@H](CCCNC(N)=O)NC(=O)[C@H](CCC(N)=O)NC(=O)CNC(=O)[C@H](C)NC(=O)[C@H](CCCCN)NC(=O)CCCC[C@@H]1SC[C@@H]2NC(=O)N[C@@H]21)[C@@H](C)CC)[C@@H](C)O)C(=O)N[C@@H](Cc1ccccc1)C(=O)N[C@H](C(=O)N[C@@H](CO)C(=O)N[C@@H](CCC(N)=O)C(=O)N[C@H](C(=O)N[C@@H](CCCNC(=N)N)C(N)=O)[C@@H](C)CC)[C@@H](C)O)	moderate
T11α2-1: synthetic citrullinated peptide derived from collagen (Coll.T11α2), Table 8 (Biotin-GISPADVAY[Cit]VARPAQLYRVA[Cit]PAQLSAPT[Cit]QR-NH2; SMILES CC[C@H](C)[C@H](NC(=O)CNC(=O)CCCC[C@@H]1SC[C@@H]2NC(=O)N[C@@H]21)C(=O)N[C@@H](CO)C(=O)N1CCC[C@H]1C(=O)N[C@@H](C)C(=O)N[C@@H](CC(=O)O)C(=O)N[C@H](C(=O)N[C@@H](C)C(=O)N[C@@H](Cc1ccc(O)cc1)C(=O)N[C@@H](CCCNC(N)=O)C(=O)N[C@H](C(=O)N[C@@H](C)C(=O)N[C@@H](CCCNC(=N)N)C(=O)N1CCC[C@H]1C(=O)N[C@@H](C)C(=O)N[C@@H](CCC(N)=O)C(=O)N[C@@H](CC(C)C)C(=O)N[C@@H](Cc1ccc(O)cc1)C(=O)N[C@@H](CCCNC(=N)N)C(=O)N[C@H](C(=O)N[C@@H](C)C(=O)N[C@@H](CCCNC(N)=O)C(=O)N1CCC[C@H]1C(=O)N[C@@H](C)C(=O)N[C@@H](CCC(N)=O)C(=O)N[C@@H](CC(C)C)C(=O)N[C@@H](CO)C(=O)N[C@@H](C)C(=O)N1CCC[C@H]1C(=O)N[C@H](C(=O)N[C@@H](CCCNC(N)=O)C(=O)N[C@@H](CCC(N)=O)C(=O)N[C@@H](CCCNC(=N)N)C(N)=O)[C@@H](C)O)C(C)C)C(C)C)C(C)C)	strong
T11α2-4: synthetic citrullinated peptide derived from collagen (Coll.T11α2), Table 8 (Biotin-GH[Cit]AQRSPQQQPS[Cit]LHRPQNQE-NH2; SMILES CC(C)C[C@H](NC(=O)[C@H](CCCNC(N)=O)NC(=O)[C@H](CO)NC(=O)[C@@H]1CCCN1C(=O)[C@H](CCC(N)=O)NC(=O)[C@H](CCC(N)=O)NC(=O)[C@H](CCC(N)=O)NC(=O)[C@@H]1CCCN1C(=O)[C@H](CO)NC(=O)[C@H](CCCNC(=N)N)NC(=O)[C@H](CCC(N)=O)NC(=O)[C@H](C)NC(=O)[C@H](CCCNC(N)=O)NC(=O)[C@H](Cc1c[nH]cn1)NC(=O)CNC(=O)CCCC[C@@H]1SC[C@@H]2NC(=O)N[C@@H]21)C(=O)N[C@@H](Cc1c[nH]cn1)C(=O)N[C@@H](CCCNC(=N)N)C(=O)N1CCC[C@H]1C(=O)N[C@@H](CCC(N)=O)C(=O)N[C@@H](CC(N)=O)C(=O)N[C@@H](CCC(N)=O)C(=O)N[C@@H](CCC(=O)O)C(N)=O)	moderate
